Reference: ChEMBL document CHEMBL5357059, “Arenarialins A-F, Anti-inflammatory Meroterpenoids with Rearranged Skeletons from the Marine Sponge Dysidea arenaria” (J Nat Prod, 2024)
The source made the active and inactive calls. The rule behind the calls is not given here.

Assays:
RAW264.7 [1] = experiment: Cytotoxicity against mouse RAW264.7 cells assessed as reduction in cell viability at 2.5 to 20 uM incubated for 24 hrs by CCK-8 assay; type: toxicity, cell-based; details: raw264.7, 24 h, dose 2.5-20 µM
RAW264.7 [2] = experiment: Antiinflammatory activity in LPS-induced mouse RAW264.7 cells assessed as inhibition of TNFalpha production at 5 to 20 uM pretreated for 1 hr followed by LPS stimulation and measured after 3 hrs by ELISA; type: functional, cell-based; details: dose 5-20 µM, time 4.0 hrs
RAW264.7 [3] = experiment: Antiinflammatory activity in LPS-induced mouse RAW264.7 cells assessed as inhibition of IL-6 production pretreated for 1 hr followed by LPS stimulation and measured after 3 hrs by ELISA; type: functional, cell-based; details: dose 2.5-20 µM, time 4.0 hrs
[4] = molecular target: Transcription factor p65 (Mus musculus) (UniProt Q04207); experiment: Inhibition of NFkappaB p65 phosphorylation at Ser536 residue in LPS-induced mouse RAW264.7 cells assessed as downregulation of p-NFkappaB p65 protein expression at 5 uM pretreated for 2 hrs followed by LPS stimulation and measured after 25 mins by Western blot analysis; type: cell-based; details: time 145.0 min
Sequence of Transcription factor p65 (Mus musculus) (Q04207 whole entry): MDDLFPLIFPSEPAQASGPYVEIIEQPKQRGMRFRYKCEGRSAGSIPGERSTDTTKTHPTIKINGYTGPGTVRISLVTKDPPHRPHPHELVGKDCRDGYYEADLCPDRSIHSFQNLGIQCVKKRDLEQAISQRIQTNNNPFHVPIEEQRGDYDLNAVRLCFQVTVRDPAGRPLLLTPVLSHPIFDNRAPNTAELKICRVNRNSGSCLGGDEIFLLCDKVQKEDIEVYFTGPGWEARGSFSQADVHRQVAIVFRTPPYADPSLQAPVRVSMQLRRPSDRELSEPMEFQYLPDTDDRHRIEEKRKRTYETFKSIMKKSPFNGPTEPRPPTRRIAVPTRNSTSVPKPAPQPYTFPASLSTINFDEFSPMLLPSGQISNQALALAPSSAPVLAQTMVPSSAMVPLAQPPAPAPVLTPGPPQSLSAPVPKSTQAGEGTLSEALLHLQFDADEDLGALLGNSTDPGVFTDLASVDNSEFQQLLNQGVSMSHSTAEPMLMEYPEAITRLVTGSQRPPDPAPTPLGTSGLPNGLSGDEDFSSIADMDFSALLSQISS

[5] = molecular target: T1, NF-kappa-B inhibitor alpha (Mus musculus) (UniProt Q9Z1E3); experiment: Inhibition of IkappaBalpha phosphorylation at Ser32 residue in LPS-induced mouse RAW264.7 cells at 5 uM pretreated for 2 hrs followed by LPS stimulation and measured after 25 mins by Western blot analysis; type: cell-based; details: time 145.0 min
T1 sequence (whole entry): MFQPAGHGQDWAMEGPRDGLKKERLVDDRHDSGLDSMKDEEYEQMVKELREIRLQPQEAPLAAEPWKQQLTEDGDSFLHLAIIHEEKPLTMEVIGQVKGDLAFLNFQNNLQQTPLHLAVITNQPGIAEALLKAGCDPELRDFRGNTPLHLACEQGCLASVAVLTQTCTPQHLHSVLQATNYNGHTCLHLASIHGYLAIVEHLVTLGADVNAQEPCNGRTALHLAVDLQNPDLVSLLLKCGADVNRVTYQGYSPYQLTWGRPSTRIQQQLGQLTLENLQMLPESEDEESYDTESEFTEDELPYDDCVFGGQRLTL

RAW264.7 [6] = experiment: Effect on COX-2 protein expression in LPS-induced mouse RAW264.7 cells at 5 uM pretreated for 2 hrs followed by LPS stimulation and measured after 25 mins by Western blot analysis; type: functional, cell-based; details: time 145.0 min
[7] = molecular target: Mitogen-activated protein kinase 1 and 3 (ERK2 and ERK1) (Mus musculus) (UniProt P63085+Q63844); experiment: Inhibition of LPS-induced ERK1/2 phosphorylation in mouse RAW264.7 cells assessed as reduction in p-ERK1/2 protein expression at 2.5 to 5 uM pretreated for 2 hrs followed by LPS stimulation and measured after 25 mins by Western blot analysis; type: cell-based; details: dose 2.5-5 µM, time 145.0 min
Sequence of Mitogen-activated protein kinase 1 and 3 (ERK2 and ERK1) (Mus musculus) (P63085 whole entry, looked up): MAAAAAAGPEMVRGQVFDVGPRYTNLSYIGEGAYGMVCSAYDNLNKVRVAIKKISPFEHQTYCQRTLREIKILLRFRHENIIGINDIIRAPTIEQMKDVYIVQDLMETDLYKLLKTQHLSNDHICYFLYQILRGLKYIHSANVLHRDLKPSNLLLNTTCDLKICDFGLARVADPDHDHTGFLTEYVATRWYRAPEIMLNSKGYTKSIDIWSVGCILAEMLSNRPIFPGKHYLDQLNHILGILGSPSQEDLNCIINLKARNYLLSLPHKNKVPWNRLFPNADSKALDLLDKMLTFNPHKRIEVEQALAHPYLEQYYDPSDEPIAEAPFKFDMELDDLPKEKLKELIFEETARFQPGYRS
Sequence of Mitogen-activated protein kinase 1 and 3 (ERK2 and ERK1) (Mus musculus) (Q63844 whole entry, looked up): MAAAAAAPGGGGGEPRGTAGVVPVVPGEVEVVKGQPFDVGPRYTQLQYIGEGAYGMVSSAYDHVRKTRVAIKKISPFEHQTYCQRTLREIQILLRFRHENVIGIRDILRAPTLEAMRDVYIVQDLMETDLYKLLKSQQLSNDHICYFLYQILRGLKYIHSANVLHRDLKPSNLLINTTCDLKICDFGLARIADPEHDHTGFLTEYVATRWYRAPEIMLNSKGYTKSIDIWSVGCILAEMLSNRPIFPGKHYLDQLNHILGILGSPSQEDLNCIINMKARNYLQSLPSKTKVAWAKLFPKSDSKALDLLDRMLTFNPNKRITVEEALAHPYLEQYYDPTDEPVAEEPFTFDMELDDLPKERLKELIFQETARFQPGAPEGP

RAW264.7 [8] = experiment: Inhibition of LPS-induced p38 phosphorylation in mouse RAW264.7 cells assessed as reduction in p-p38 protein expression at 2.5 to 5 uM pretreated for 2 hrs followed by LPS stimulation and measured after 25 mins by Western blot analysis; type: cell-based; details: dose 2.5-5 µM, time 145.0 min
[9] = molecular target: c-Jun N-terminal kinase (Mus musculus) (UniProt Q91Y86+Q9WTU6+Q61831); experiment: Inhibition of LPS-induced JNK phosphorylation in mouse RAW264.7 cells assessed as reduction in p-JNK protein expression at 2.5 to 5 uM pretreated for 2 hrs followed by LPS stimulation and measured after 25 mins by Western blot analysis; type: cell-based; details: dose 2.5-5 µM, time 145.0 min
Sequence of c-Jun N-terminal kinase (Mus musculus) (Q61831 whole entry, looked up): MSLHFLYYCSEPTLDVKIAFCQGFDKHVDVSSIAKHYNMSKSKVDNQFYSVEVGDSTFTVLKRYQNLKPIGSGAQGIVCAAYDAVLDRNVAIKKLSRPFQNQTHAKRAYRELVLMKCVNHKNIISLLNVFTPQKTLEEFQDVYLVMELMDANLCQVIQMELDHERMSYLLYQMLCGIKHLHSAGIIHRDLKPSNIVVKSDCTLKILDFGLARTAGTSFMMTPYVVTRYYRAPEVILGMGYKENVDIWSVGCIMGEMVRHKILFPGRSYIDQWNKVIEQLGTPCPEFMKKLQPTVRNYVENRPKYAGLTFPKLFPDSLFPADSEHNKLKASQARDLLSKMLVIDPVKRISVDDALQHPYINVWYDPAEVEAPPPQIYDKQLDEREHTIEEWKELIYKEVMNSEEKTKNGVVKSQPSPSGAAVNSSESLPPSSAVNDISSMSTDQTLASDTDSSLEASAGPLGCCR
Sequence of c-Jun N-terminal kinase (Mus musculus) (Q91Y86 whole entry, looked up): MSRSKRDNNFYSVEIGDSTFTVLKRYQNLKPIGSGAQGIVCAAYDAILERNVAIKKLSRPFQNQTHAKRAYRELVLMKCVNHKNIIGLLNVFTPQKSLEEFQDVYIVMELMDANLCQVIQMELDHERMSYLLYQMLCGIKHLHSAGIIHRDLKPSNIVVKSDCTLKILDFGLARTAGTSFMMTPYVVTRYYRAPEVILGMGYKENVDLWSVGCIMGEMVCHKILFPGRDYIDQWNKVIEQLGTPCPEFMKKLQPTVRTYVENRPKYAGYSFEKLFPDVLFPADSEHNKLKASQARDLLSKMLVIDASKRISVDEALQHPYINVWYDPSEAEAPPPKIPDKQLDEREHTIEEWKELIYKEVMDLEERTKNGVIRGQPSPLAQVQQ
Sequence of c-Jun N-terminal kinase (Mus musculus) (Q9WTU6 whole entry, looked up): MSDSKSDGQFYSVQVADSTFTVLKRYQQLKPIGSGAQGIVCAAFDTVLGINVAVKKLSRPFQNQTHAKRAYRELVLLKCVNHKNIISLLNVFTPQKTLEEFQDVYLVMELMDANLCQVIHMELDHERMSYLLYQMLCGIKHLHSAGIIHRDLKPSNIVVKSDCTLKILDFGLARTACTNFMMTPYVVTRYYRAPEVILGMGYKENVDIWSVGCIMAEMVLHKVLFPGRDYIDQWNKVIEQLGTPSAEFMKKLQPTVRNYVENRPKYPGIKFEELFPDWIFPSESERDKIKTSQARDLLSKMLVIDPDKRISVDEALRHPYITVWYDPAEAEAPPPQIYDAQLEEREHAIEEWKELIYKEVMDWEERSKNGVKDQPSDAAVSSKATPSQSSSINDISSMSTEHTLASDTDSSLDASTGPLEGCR

Row | inhibition [4] | inhibition [5] | inhibition [7] | inhibition [9] | SMILES | Activity (RAW264.7 [1]) | Activity (RAW264.7 [2]) | Activity (RAW264.7 [3]) | Activity (RAW264.7 [6]) | inhibition (RAW264.7 [8])
1 | Active | inactive | Active | Active | C[C@@H]1CC[C@@]2(C)OC(=O)[C@H]3Oc4ccc(O)cc4C[C@]1(C)[C@@H]32 | Non-Toxic | Active | Dose-Dependent Effect | inactive | Active
2 | – | – | – | – | C=C1[C@H](O)C[C@@H]2Oc3ccc(O)cc3C[C@]3(C)[C@@H](C)CC[C@@]1(C)[C@@H]23 | Non-Toxic | – | Dose-Dependent Effect | – | –
3 | – | – | – | – | CCOC1=CC(=O)C2=C(C1=O)[C@@H]1C[C@]3(C)C(C)=CCCC3=C(C)[C@]1(C)C2 | Non-Toxic | Active | – | – | –
4 | – | – | – | – | C[C@H]1CC[C@]2(C)[C@@H](C)OC(=O)C[C@]23c2c(O)ccc(O)c2C[C@]13C | Non-Toxic | – | – | – | –
5 | – | – | – | – | C[C@H]1CC[C@@]2(C)[C@]34CC(=O)C[C@]2(C)Oc2ccc(O)c(c23)C[C@]14C | Non-Toxic | Active | Dose-Dependent Effect | – | –
6 | – | – | – | – | CC1=CC(=O)[C@@H]2Oc3ccc(O)cc3C[C@]3(C)[C@@H](C)CC[C@@]1(C)[C@@H]23 | Non-Toxic | Active | Dose-Dependent Effect | – | –
